Assay results from patent US5691338A, “1,2-dithiole-3 thiones for the treatment of reverse transcriptase-dependent viral infections” (priority 1995, dated 1997).
Read-outs that look alike come from different tables or passages of the source.

What was measured:
HIV-1 [1] = details: HIV-1 infected patients, pharmacokinetics study; cited from earlier work
HIV-1 [2] = details: cited from earlier work
HIV-1 (HTLVIIIB) [3] = test: microbe, parasite or virus in culture; assay type: cell-based; details: up to 120 μM, H9 cells
H9 cells = test: Cytotoxicity in H9 cells by trypan blue exclusion; assay type: cell-based, human; details: up to 30 μM (tert-butylhydroquinone), 120 μM (1,2-dithiole-3-thione), 60 μM (dimethyl fumarate)
[4] = target: T1, HIV-1 reverse transcriptase (RT) (Human immunodeficiency virus type 1 group M subtype B, UniProt P04585); test: Inhibition of recombinant HIV-1 reverse transcriptase (TTP incorporation); assay type: biochemical; details: poly(A):oligo(dT) and TTP as substrates
T1 construct: Recombinant HIV-1 reverse transcriptase (RT) was obtained from Worthington (Freehold, N.J.); purchased Worthington (Freehold, N.J.)
Experimental: Reverse transcriptase assays were performed as described by Flexner, et al. (25) using recombinant HIV-1 RT as the source of enzyme. Dilutions and assay were carried out in 96-well "half-area" plates. The enzyme with various concentrations of test compounds were dissolved in DPBS containing 1% w/v BSA and diluted in 50 μl volumes; 10 μl aliquots in triplicate were transferred to another plate for the enzyme assay. The reactions were initiated by the addition of 25 μl/well of buffer containing 50 mM Tris.cndot.Cl (pH 8.0), 75 mM KCl, 1 mM dithiothreitol, 2 mM MgCl2, 5 μg/ml poly(A), 2.5 μg/ml oligo (dT), 10 μCi/ml ^32 p TTP with or without unlabeled TTP. […] TTP incorporation was measured by spotting 20 μl of the reaction cocktail onto DE81 paper, washing the paper with 4×5 min washes of 300 mM NaCl and 30 mM sodium citrate (pH 7.0), drying the paper, and counting the paper by liquid scintillation counting. The assays performed with oltipraz and 1,2-dithiole-3-thione contained 0.29% final concentration DMSO. This concentration of DMSO had no effect on RT activity.

[5] = system: quinone reductase (QR) in H9 cells; test: Elevation of quinone reductase (QR) in H9 cells; assay type: cell-based, human; details: for fold induction at 30 µM / fold induction at 60 µM / fold induction at 120 µM: Homo sapiens, read-out: Quinone reductase, treated to control value
Experimental: (§1) Five ml of medium was added to T-25 flasks and DMSO containing tests compounds were added to a final concentration of 0.1%. Control medium contained 0.1% DMSO. After the drugs were added, 5×10^6 cells in 5 ml of medium was added to each T-25 flask. The cells were grown at 37° C. in a humidified incubator supplemented with 5% CO2 until harvested (N=3 flasks/group). At the indicated times, cells were isolated by centrifugation (500×g×10 min) and were washed three times by adding 10 ml of ice-cold DPBS, mixing, and centrifuging in a refrigerated centrifuge (500×g×10 min) to isolate the cell pellets. The cells were then lysed by the addition of 400 μl of ice-cold DPBS containing 0.5% Triton X-100 and vortexing. Supernatants were then isolated by centrifuging the lysates (5000×g×20 min). Samples were kept on ice or refrigerated until the reagents for QR or GSH spectrophotometric assays were added to the aliquoted microtiter plates. QR levels were determined by aliquoting 10 μl/well of supernatant in a 96-well plate and measuring the activity by the assay described by Prochaska and Santamaria (20) except that the final NADP^+ concentration was 200 μM (21). Samples were assayed in quadruplicate, and dicoumarol inhibitable-rates (which generally represented less than 5% of the total rate) were also measured. Spectrophotometric blanks contained 10 μl of DPBS with 0.5% Triton X-100. For the GSH assay, 300 μl of sample was placed in a centricon-10microconcentrator and centrifuged (5000×g×45 min) until enough ultrafiltrate could be collected. 50 μl/well of sample in quadruplicate was placed in a 96 well "half-area" plate after which 20 μl of 1 mM Ellman's reagent dissolved in DPBS was added. The yellow color (22) developed within 5 min and was scanned with a uvmax microtiter scanner (Palo Alto, Calif.) at 405 nm. Spectrophotometric blanks contained 50 μl DPBS with 0.5% Triton X-100 and 20 μl of 1 mM Ellman's reagent in DPBS. The optical densities of the specimens were calibrated to a GSH standard curve. Protein contents were determined in 3 ml cuvettes by the Bradford method (23). The protein content in the ultrafiltrates employed for GSH determinations were negligible (<0.01 mg/ml).
We confirmed that the induction of QR in microtiter wells mirrored our results in T-25 flasks by using the method of Prochaska and Santamaria (20). Medium (100 μl) containing 0.1% final concentration DMSO was added to all wells except columns designated to contain the highest concentration of drug or spectrophotometric blanks in duplicate sets of U-bottomed microtiter plates. 200 μl of media containing drug (final DMSO concentration=0.1%) was added to the empty column of wells and then diluted in 2-fold serial dilutions across. After the serial dilutions were performed, 100 μl of media containing 1×10^6 cells/ml was added to each well, and the plates were placed in a 37° C. incubator for 48 h. One set of plates was assayed as described (21) for QR activity, the other was assayed for cell number by the method for Alley et al. (24).

[6] = system: glutathione levels (GSH) in H9 cells; test: Elevation of glutathione (GSH) levels in H9 cells; assay type: cell-based, human; details: for fold induction at 30 µM / fold induction at 60 µM / fold induction at 120 µM: Homo sapiens, read-out: Glutathione levels, treated to control value
Experimental: as §1

HIV-1 (HTLVIIIB) [7] = test: microbe, parasite or virus in culture; details: Human immunodeficiency virus 1, H9, read-out: median dose (p24 release)
Experimental: The effects for test compounds were assessed by means of both IFA and p24 release. In general, the following protocol was followed: H9 cells were infected with HIV-1 at 1000 50% infective doses of viruses/10^6 cells. Virus was allowed to adsorb for 1 h, after which unadsorbed virus was removed by centrifugation. The cells were resuspended and washed twice with PBS (without Ca^+2 or Mg^+2 salts) and centrifuged to collect the cell pellet (150×g×10 min). Cells were suspended in fresh medium and added at a final cell density of 500,000 cells/ml in a 96-well plate with media containing 0.1% DMSO and various concentrations of test compounds. The cells were re-fed freshly prepared media containing 0.1% DMSO±test compounds on day four (for preinduction experiments, cells were exposed to inducers on days -2, 0, and +4 days relative to infection). After seven days, cells were examined for cytoxicity by trypan blue exclusion, the degree of infection with HIV-1 by IFA, and the supernatants were assayed for p24 levels according to the manufacturer's directions. The IFA procedure can be summarized as follows: The cells were washed twice in PBS and were placed in 5 mm 12-well slides. After allowing the slides to dry and fixing the cells with acetone for 5 min, 10 μl of HIV-1 positive serum in 40 μl PBS was added to each well and allowed to incubate at 37° C. for 30 min. After incubation, the slides were washed twice with PBS and incubated at 37° C. for 30 min with 2.5 μl goat anti-human IgG-fluorescein isothiocyanate conjugate in 50 μl PBS containing 0.01% Evans Blue per well. The slides were then washed twice with PBS, dried, and mounted with 50% glycerol in PBS, and scored for the percentage of fluorescent cells by fluorescent microscopy.
Statistical significance for GSH and QR levels were established by the unpaired t test using the INSTAT statistics program (Graphpad, San Diego, Calif.). The Ki of oltipraz was determined by performing Segal transformations (26) of Dixon plots. […] Calculations were performed on spreadsheets using Lotus 1-2-3 software (Cambridge, Mass.).

[8] = dose- and time-dependent, H9 cells

Structure (SMILES): CC(=O)N[C@@H](CS)C(=O)O [N-acetylcysteine]
- effect on surrogate markers for HIV-1 (HIV-1 [1]): did not alter surrogate markers for HIV-1
- inhibition of HIV-1 replication (HIV-1 [2]; cultured cells): effectively inhibit the replication of HIV-1

Structure (SMILES): S=c1ccss1 [1,2-dithiole-3-thione]
- inhibition of HIV-1 replication (HIV-1 (HTLVIIIB) [3]): inactive
- cytotoxicity at optimal inductive doses (H9 cells): non-cytotoxic
- inhibition of recombinant HIV-1 reverse transcriptase [4]: inactive
- Quinone Reductase Specific Activity ([5]; 48 h, 30 μM): 232 ± 16 nmol/min/mg
- Quinone Reductase Specific Activity ([5]; 48 h, 60 μM): 244 ± 12.1 nmol/min/mg
- Quinone Reductase Specific Activity ([5]; 48 h, 120 μM): 299 ± 11 nmol/min/mg
- Quinone Reductase Specific Activity ([5]; 96 h, 30 μM): 59.4 ± 1.4 nmol/min/mg
- Quinone Reductase Specific Activity ([5]; 96 h, 60 μM): 65.0 ± 2.1 nmol/min/mg
- Quinone Reductase Specific Activity ([5]; 96 h, 120 μM): 109 ± 28 nmol/min/mg
- fold induction at 30 µM ([5]; H9, 48 h): 1.61
- fold induction at 60 µM ([5]; H9, 48 h): 1.67
- fold induction at 120 µM ([5]; H9, 48 h): 2.07
- fold induction at 30 µM ([5]; H9, 96 h): 1.17
- fold induction at 60 µM ([5]; H9, 96 h): 1.71
- fold induction at 120 µM ([5]; H9, 96 h): 2.15
- elevation of QR [5, 8]: able to elevate both GSH and QR levels
- Glutathione Levels ([6]; 48 h, 30 μM): 53.5 ± 7.1 nmol/mg
- Glutathione Levels ([6]; 48 h, 60 μM): 57.5 ± 1.3 nmol/mg
- Glutathione Levels ([6]; 48 h, 120 μM): 74.9 ± 3.6 nmol/mg
- Glutathione Levels ([6]; 96 h, 30 μM): 59.4 ± 1.4 nmol/mg
- Glutathione Levels ([6]; 96 h, 60 μM): 65.0 ± 2.1 nmol/mg
- Glutathione Levels ([6]; 96 h, 120 μM): 109 ± 28 nmol/mg
- fold induction at 30 µM ([6]; H9, 48 h): 1.17
- fold induction at 60 µM ([6]; H9, 48 h): 1.26
- fold induction at 120 µM ([6]; H9, 48 h): 1.63
- fold induction at 30 µM ([6]; H9, 96 h): 1.17
- fold induction at 60 µM ([6]; H9, 96 h): 1.71
- fold induction at 120 µM ([6]; H9, 96 h): 2.15
- elevation of GSH [6, 8]: able to elevate both GSH and QR levels

Structure (SMILES): Cc1cn([C@H]2C[C@H](N=[N+]=[N-])[C@@H](CO)O2)c(=O)[nH]c1=O [AZT, 3'-azido-3'-deoxythymidine]
- IC50 (HIV-1 (HTLVIIIB) [7]): 0.045 µM
- synergy with anti-HIV-1 drugs (HIV-1 [2]; in vitro, Kong et al.): synergistic with anti-HIV-1 drugs such as phosphonoformate
